What was measured:
[1] = molecular target: T1, Tyrosine-protein kinase receptor TYRO3 (Homo sapiens) (UniProt Q06418); test: Selectivity interaction (Millipore kinase profiler) EUB0000124b TYRO3; conditions: at 10 µM
T1 sequence (whole entry): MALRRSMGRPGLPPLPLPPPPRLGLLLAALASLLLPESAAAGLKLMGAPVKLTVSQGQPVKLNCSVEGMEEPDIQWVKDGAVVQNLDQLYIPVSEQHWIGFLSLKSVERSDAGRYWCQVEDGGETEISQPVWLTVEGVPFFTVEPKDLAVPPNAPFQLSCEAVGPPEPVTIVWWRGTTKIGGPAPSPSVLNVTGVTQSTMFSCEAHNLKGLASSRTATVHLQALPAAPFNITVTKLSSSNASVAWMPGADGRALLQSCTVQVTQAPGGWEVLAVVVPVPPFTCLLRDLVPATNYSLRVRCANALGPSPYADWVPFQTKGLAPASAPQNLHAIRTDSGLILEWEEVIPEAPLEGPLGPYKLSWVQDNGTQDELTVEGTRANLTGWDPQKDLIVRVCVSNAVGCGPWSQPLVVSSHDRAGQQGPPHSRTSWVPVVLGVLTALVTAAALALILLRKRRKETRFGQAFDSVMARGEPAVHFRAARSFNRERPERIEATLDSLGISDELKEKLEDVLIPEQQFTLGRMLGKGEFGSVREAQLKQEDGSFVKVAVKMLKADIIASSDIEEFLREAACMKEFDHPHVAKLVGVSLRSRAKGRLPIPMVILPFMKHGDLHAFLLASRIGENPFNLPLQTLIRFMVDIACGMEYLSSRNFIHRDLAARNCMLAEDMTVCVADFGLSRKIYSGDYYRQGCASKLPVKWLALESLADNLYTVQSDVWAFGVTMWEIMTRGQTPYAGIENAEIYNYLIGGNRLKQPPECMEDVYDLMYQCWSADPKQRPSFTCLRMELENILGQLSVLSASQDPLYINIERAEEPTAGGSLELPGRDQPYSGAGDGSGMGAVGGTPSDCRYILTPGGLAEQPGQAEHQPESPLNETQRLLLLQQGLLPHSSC

[2] = molecular target: NT-3 growth factor receptor (Homo sapiens, UniProt Q16288); test: Selectivity interaction (KinomeScan (DiscoverX)) EUB0000666a NTRK3; conditions: at 10 µM
[3] = molecular target: Cyclin-dependent kinase 2 (Homo sapiens, UniProt P24941); test: Selectivity interaction (ActivX KiNativ screen (kinase selectivity in THP-1 cell lysates)) EUB0000639a CDK2; assay type: subcellular; conditions: lysate, at 0.04 µM
[4] = test system: Phosphatidylinositol 4,5-bisphosphate 3-kinase catalytic subunit alpha isoform (Homo sapiens), P42336 [E545K]; conditions: at 10 µM
[5] = molecular target: Myosin-IIIa (Homo sapiens) (UniProt Q8NEV4); test: Selectivity interaction (KinomeScan (DiscoverX)) EUB0000045b MYO3A
[6] = molecular target: Serine/threonine-protein kinase RIO2 (Homo sapiens) (UniProt Q9BVS4); test: Selectivity interaction (KinomeScan (DiscoverX)) EUB0001619a RIOK2; conditions: at 1 µM
[7] = molecular target: T2, Serine/threonine-protein kinase TAO1 (Homo sapiens) (UniProt Q7L7X3); test: Selectivity interaction (KinomeScan (DiscoverX)) EUB0000695a TAOK1; conditions: at 100 nM
T2 sequence (whole entry): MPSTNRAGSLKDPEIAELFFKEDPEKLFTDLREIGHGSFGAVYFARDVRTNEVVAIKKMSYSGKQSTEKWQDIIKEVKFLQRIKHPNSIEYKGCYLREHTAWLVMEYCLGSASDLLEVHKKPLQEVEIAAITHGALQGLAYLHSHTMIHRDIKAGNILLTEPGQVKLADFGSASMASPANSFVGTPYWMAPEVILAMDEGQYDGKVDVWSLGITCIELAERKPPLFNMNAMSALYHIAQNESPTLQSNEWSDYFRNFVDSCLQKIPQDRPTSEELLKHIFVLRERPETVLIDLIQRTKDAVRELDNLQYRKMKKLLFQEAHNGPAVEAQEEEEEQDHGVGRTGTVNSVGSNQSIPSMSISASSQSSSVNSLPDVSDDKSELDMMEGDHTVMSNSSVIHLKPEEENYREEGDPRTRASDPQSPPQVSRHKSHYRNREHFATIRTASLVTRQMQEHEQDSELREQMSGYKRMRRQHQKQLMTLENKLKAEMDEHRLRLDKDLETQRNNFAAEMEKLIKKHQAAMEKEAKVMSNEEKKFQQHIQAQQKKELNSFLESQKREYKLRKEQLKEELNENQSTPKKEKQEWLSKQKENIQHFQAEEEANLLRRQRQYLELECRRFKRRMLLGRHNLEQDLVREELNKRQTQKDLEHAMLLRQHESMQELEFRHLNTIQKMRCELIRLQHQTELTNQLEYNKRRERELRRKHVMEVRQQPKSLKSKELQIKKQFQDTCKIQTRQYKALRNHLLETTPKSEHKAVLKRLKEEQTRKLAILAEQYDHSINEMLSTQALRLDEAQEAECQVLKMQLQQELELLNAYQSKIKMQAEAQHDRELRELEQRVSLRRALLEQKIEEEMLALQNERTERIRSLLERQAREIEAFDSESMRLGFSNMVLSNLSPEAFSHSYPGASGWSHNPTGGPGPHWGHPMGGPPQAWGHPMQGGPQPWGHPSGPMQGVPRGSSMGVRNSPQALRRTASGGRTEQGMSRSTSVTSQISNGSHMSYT

[8] = molecular target: Casein kinase I isoform delta (Homo sapiens, UniProt P48730); test: Selectivity interaction (SelectScreen profiling (Invitrogen)) EUB0000607a CSNK1D; conditions: at 2 µM
[9] = molecular target: Ribosomal protein S6 kinase alpha-2 (Homo sapiens) (UniProt Q15349); test: Selectivity interaction (KinomeScan (DiscoverX)) EUB0000607a RPS6KA2; conditions: at 10 µM
[10] = molecular target: TGF-beta receptor type-2 (Homo sapiens) (UniProt P37173); test: Selectivity interaction (KinomeScan (DiscoverX)) EUB0000607a TGFBR2; conditions: at 10 µM
[11] = molecular target: MAP kinase-interacting serine/threonine-protein kinase 1 (Homo sapiens) (UniProt Q9BUB5); test: Selectivity interaction (ProQinase) EUB0000171b MKNK1
Chain of MAP kinase-interacting serine/threonine-protein kinase 1 (Homo sapiens) (Q9BUB5 whole entry, looked up): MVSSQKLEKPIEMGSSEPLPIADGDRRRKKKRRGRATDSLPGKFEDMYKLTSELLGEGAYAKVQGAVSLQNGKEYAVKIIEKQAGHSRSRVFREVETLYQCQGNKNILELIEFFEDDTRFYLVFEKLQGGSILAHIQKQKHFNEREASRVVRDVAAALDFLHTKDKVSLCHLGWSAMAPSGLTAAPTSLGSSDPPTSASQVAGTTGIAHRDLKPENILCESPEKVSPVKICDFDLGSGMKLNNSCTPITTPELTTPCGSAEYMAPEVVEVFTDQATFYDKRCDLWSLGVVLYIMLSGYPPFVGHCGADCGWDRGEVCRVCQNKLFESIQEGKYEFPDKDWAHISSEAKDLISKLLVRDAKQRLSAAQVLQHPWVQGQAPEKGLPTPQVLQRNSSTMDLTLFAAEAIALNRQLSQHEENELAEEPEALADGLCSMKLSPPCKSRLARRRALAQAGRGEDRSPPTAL

Chain of Myosin-IIIa (Homo sapiens) (Q8NEV4 whole entry): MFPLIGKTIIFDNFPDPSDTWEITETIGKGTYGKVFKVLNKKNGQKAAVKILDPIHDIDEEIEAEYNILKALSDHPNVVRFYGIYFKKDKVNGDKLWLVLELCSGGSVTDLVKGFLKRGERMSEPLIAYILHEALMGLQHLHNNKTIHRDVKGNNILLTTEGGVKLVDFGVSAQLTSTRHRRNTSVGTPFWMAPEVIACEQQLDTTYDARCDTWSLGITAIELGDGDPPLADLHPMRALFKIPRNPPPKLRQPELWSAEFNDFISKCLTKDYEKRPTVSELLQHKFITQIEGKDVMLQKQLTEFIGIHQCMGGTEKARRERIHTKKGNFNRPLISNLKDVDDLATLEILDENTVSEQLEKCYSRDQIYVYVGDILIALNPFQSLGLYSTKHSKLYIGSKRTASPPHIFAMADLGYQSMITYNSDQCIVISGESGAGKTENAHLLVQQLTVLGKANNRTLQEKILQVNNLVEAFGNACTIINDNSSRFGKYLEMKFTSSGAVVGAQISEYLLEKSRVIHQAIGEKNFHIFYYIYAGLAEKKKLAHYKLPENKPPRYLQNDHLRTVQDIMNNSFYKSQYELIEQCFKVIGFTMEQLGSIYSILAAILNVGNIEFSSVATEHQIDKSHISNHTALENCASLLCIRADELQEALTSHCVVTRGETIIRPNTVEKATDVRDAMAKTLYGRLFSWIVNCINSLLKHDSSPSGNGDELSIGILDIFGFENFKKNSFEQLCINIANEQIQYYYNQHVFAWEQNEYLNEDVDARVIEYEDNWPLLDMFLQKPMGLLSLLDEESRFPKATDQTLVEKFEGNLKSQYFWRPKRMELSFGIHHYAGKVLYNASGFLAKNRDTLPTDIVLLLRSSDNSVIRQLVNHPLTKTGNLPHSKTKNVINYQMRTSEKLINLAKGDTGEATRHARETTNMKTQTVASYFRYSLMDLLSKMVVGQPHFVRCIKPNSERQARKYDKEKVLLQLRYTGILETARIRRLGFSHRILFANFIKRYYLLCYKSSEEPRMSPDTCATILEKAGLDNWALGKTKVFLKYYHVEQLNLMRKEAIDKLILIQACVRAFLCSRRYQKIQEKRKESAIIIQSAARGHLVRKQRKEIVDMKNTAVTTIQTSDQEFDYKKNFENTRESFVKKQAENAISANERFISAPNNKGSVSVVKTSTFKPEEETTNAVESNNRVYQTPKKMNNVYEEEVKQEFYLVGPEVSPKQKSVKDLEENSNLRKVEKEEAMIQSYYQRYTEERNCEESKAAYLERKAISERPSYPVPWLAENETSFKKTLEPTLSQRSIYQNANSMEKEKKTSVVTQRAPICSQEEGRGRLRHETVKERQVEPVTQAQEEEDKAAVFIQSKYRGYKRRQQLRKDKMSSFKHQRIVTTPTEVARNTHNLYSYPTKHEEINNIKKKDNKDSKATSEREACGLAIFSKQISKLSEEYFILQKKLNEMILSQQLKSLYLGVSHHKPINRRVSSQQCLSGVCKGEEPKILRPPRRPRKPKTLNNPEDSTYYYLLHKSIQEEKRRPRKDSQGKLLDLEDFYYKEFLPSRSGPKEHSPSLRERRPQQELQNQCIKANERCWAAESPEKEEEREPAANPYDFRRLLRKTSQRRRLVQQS
Chain of Ribosomal protein S6 kinase alpha-2 (Homo sapiens) (Q15349 whole entry): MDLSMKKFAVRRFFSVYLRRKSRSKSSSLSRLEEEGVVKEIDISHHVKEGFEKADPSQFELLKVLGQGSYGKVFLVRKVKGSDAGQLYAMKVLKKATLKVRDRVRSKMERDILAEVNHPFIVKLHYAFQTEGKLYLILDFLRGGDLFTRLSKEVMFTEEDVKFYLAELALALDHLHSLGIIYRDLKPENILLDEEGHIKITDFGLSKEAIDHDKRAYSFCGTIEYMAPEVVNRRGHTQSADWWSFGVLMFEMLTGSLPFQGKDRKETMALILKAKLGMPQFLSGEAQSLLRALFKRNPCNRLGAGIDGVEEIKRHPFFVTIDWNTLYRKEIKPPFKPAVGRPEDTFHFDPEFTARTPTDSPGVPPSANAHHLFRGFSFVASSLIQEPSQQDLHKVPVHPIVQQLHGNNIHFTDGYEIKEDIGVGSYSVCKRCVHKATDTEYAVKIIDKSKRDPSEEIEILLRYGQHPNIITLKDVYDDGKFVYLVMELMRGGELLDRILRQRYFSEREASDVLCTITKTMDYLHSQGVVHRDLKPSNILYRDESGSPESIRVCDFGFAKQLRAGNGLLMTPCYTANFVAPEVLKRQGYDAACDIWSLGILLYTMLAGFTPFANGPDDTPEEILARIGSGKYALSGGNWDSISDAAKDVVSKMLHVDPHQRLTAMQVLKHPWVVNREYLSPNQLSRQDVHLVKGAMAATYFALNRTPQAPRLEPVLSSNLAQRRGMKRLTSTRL
Chain of TGF-beta receptor type-2 (Homo sapiens) (P37173 whole entry): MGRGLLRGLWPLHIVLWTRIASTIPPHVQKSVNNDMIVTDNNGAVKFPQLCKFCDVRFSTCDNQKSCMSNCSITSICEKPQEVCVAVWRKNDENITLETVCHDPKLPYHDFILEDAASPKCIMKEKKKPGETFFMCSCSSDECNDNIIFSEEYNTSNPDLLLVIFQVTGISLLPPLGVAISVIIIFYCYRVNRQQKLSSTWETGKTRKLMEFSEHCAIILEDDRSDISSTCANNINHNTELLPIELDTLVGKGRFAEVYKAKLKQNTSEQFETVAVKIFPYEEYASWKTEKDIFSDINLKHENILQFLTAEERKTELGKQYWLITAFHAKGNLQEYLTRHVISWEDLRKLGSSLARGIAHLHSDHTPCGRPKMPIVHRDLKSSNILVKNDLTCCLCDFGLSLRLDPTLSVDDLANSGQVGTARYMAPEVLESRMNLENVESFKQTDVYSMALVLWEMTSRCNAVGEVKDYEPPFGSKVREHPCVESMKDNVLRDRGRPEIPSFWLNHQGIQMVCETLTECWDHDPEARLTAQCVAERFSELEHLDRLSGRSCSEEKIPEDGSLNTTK
Chain of Serine/threonine-protein kinase RIO2 (Homo sapiens) (Q9BVS4 whole entry, looked up): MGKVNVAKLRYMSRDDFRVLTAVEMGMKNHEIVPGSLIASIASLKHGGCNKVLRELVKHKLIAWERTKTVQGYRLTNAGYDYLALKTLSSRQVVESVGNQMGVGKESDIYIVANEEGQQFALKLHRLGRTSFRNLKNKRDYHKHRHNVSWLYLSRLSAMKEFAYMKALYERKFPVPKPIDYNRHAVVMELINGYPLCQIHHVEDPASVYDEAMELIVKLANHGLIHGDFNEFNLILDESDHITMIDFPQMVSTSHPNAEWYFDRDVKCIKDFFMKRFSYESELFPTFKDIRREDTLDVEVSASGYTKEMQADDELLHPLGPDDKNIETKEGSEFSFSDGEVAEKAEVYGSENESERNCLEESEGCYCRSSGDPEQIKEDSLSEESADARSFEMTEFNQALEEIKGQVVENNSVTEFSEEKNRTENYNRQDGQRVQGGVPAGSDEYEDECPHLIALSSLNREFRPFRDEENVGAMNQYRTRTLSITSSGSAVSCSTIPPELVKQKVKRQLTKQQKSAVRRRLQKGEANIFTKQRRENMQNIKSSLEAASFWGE
Chain of NT-3 growth factor receptor (Q16288 32-839 limits assumed): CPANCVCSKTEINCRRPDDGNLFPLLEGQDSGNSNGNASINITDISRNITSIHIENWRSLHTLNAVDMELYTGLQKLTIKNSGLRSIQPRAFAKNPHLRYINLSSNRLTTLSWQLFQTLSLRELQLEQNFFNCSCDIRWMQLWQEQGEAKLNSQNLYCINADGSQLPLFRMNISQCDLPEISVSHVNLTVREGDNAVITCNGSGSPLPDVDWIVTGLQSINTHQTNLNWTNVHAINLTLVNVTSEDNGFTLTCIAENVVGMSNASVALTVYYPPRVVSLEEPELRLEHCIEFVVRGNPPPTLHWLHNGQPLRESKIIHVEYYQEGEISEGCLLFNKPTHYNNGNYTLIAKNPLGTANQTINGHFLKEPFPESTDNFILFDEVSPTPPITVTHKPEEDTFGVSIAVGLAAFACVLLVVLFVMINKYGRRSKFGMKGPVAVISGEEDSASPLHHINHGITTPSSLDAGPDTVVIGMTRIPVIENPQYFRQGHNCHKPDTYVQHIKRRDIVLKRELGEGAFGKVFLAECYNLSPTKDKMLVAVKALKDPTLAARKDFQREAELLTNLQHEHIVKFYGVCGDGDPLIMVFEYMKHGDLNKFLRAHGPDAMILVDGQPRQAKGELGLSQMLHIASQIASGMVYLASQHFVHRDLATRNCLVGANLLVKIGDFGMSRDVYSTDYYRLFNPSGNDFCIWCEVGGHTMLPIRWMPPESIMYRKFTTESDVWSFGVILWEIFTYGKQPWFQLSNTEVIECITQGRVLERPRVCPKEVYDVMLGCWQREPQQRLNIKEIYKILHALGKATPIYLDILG

How did the % of control [1] turn out when `CC(=O)Nc1cccc(-n2c(=O)n(C3CC3)c(=O)c3c(Nc4ccc(I)cc4F)n(C)c(=O)c(C)c32)c1` was run?
Its % of control is 112%.

Which % of control [2] does the source give for `O=C(NOC[C@H](O)CO)c1ccc(F)c(F)c1Nc1ccc(I)cc1F` here?
Its % of control is 93%.

For `CC[C@@H]1[C@H](F)C(=O)N[C@@H]1COc1nccc2cc(C(N)=O)c(OC)cc12` [ZIMLOVISERTIB], which % of inhibition [3] is on record?
Its % of inhibition is -1.2%.

With `COCC(=O)NC/C=C/c1ccc2ncnc(Nc3ccc(Oc4ccc(C)nc4)c(C)c3)c2c1` [CP-724714] as the molecule, how does the % of control [4] read?
Its % of control is 100%.

With `C=CC(=O)Nc1cc(-n2c(=O)ccc3cnc4ccc(-c5ccc(NS(C)(=O)=O)cc5)cc4c32)ccc1C` as the molecule, how does the % of control ([5]; at 1 µM) read?
Its % of control is 100%.

What about the % of control ([5]; at 10 µM) of the same molecule?
Its % of control is 85%.

`N#Cc1cccc(-c2c[nH]c3ncnc(N4CCOCC4)c23)c1` was tested. Which % of control [6] did it give?
The % of control was 75%.

How did the % of control [7] turn out when `Cc1cc(F)c(C(=O)Nc2cccc(-c3nncn3C(C)C)n2)cc1-n1cnc(C2CC2)c1` was run?
The % of control was 100%.

What does the source list for `CNC(=O)Nc1ccc(-c2nc(N3CC4CCC(C3)O4)c3cnn(C4CCC5(CC4)OCCO5)c3n2)cc1`?
% of inhibition [8]: 2%; % of control [9]: 93%; % of control [10]: 100%

For `C=CC(=O)Nc1cccc(C(=O)Nc2ccc(Nc3cc(-c4[nH]c(SC)nc4C)ccn3)cc2)c1`, which % of control ([11]; at 1 µM) is on record?
The % of control was 90%.

What about the % of control ([11]; at 5 µM) of the same molecule?
The % of control was 55%.
